Test results from patent US9447060B2, “Small molecule modulators of pRb inactivation” (The Wistar Institute of Anatomy and Biology, priority 2011, dated 2016).

Assays:
[1] = tested on: SiHa cells; experiment: Cell cycle and apoptosis in SiHa cells, propidium iodide flow cytometry and morphology; type: cell-based; settings: 48 hours
Protocol: Since the thiadiazolin-3,5-dione compounds bind to pRb, data was generated regarding their effect in cells infected with HPV. […] DNA content was determined by propidium iodine staining and analysis by flow cytometry.
Cultured cell lines were seeded in 60 mm tissue culture dishes (Falcon) at 1×10^5 cells/well. […] Cells were then trypsinized, washed with phosphate-buffered saline (1.0 mL; PBS), and fixed in ethanol (80%) for 30 minutes on ice. Fixed cells were spun at 500 g for 5 minutes, rehydrated with PBS (1 mL), and spun again to remove any traces of ethanol. Cells were stained with propidium iodide (250 μL; PI), which was prepared by adding PI (100 μL, 2 mg/ml, Sigma) and RNase A (3.5 μL of 30 mg/ml, Sigma) into PBS (10 mL). Cells were then analyzed at the Wistar Institute Flow Cytometry Core Facility using standard equipment, reagents, and methodologies known in the art.

[2] = biological target: T1, GST-pRbABC/E2F complex disrupted by 6×His-HPV1AE7CR2-3 (Homo sapiens, UniProt P06400); experiment: ELISA: inhibition of HPV1A-E7-mediated disruption of pRb/E2F complexes; type: binding, low risk HPV (type 1A); settings: E2F remaining bound to pRb; 500 nM 1AE7
T1 construct: made in house; host or cells: pRb: Sf9; E2F1 and E7: E. coli BL21(DE3)
T1 sequence (P06400 376-928): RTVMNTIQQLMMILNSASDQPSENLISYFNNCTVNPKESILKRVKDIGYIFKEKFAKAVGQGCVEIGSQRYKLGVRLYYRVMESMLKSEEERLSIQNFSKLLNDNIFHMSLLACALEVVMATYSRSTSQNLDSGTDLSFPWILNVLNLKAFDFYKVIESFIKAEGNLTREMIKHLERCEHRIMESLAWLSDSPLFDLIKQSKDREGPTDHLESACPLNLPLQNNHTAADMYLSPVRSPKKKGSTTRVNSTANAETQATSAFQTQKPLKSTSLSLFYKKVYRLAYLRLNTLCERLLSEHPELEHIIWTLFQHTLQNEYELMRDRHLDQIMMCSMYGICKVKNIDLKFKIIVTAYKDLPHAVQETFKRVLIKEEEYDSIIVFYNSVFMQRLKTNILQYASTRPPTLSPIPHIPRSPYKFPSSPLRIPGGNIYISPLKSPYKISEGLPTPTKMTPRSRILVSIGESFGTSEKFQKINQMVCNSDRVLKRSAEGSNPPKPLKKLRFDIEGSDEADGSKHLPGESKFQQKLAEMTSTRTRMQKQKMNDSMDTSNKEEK
T1 sequence (Q01094 243-437 partner limits assumed): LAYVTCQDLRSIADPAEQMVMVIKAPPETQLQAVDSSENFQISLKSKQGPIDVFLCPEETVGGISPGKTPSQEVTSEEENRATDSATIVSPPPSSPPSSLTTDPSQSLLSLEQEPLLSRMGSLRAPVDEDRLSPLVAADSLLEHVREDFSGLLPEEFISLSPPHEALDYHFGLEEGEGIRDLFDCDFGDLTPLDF
Protocol: (§1) Since HPV-E7 mediates high affinity pRb binding through the association of its L×C×E motif in CR2 to the B domain of pRb, the ability of the thiadiazolidinedione compounds to inhibit the ability of other L×C×E containing viral oncoproteins from disrupting E2F/pRb complexes was tested. The other L×C×E containing viral oncoproteins tested included HPV-E7 from a low risk HPV form (type 1A) and Adenovirus E1A proteins.
(§2) A similar ELISA assay was used to assess the ability of the compounds to inhibit the ability of HPV16-E7-mediated disruption of E2F/pRb complexes. For these studies, 6×His-HPV1AE7CR2-3 and 6×His-Ad5E1ACR1-3, containing the L×C×E motif, were employed. The assay described above was modified in such a way that GST-pRbABC alone was added to HPV-E7CR2-3+ compound, HPV-E7CR2-3+DMSO, Ad5-E1ACR1-3+ compound, or Ad5-E1ACR1-3 DMSO. Mouse monoclonal anti-His antibody (Fisher) diluted 1:10,000 was used to detect how much His-E7CR2-3 remained bound to GST-pRbABC on the plate. Mouse monoclonal Ad5-E1A antibody (Abeam) diluted 1:10,000 was used to detect how much E1ACR1-3 remained bound to GST-pRbABC on the plate. All other steps remained unchanged.

[3] = biological target: T2, GST-pRbABC/E2F complex disrupted by 6×His-Ad5E1ACR1-3 (Homo sapiens, UniProt P06400); experiment: ELISA: inhibition of adenovirus E1A-mediated disruption of pRb/E2F complexes; type: binding; settings: E2F remaining bound to pRb; 100 nM E1A
T2 construct: made in house; host or cells: pRb: Sf9; E2F1 and E1A: E. coli BL21(DE3)
T2 sequence (P06400 376-928): T1 sequence (P06400 376-928)
T2 sequence (Q01094 243-437 partner limits assumed): T1 sequence (Q01094 243-437 partner limits assumed)
Protocol: as §1, §2

[4] = biological target: T3, GST-pRbABC/6×His-HPV1AE7CR2-3 complex (Homo sapiens, UniProt P06400); experiment: ELISA: disruption of pRb/HPV1A-E7 complex; type: binding, low risk HPV (type 1A); settings: disruption of pRb/viral oncoprotein complex; 500 nM 1AE7
T3 construct: made in house; host or cells: pRb: Sf9; E7: E. coli BL21(DE3)
T3 sequence (P06400 376-928): T1 sequence (P06400 376-928)
Protocol: as §2

[5] = biological target: T4, GST-pRbABC/6×His-Ad5E1ACR1-3 complex (Homo sapiens, UniProt P06400); experiment: ELISA: disruption of pRb/Ad5-E1A complex; type: binding, adenovirus; settings: disruption of pRb/viral oncoprotein complex; 100 nM E1A
T4 construct: made in house; host or cells: pRb: Sf9; E1A: E. coli BL21(DE3)
T4 sequence (P06400 376-928): T1 sequence (P06400 376-928)
Protocol: as §2

[6] = biological target: T5, pRbAB (Homo sapiens, UniProt P06400, DEL590-635); experiment: Isothermal titration calorimetry binding to pRbAB; settings: for Kd: ITC, pRbAB, 22° C.
T5 construct: untagged pRbAB (372-787 with the linker from 590-635 removed); made in house
T5 sequence (P06400 with tags, fused parts or gaps DEL590-635): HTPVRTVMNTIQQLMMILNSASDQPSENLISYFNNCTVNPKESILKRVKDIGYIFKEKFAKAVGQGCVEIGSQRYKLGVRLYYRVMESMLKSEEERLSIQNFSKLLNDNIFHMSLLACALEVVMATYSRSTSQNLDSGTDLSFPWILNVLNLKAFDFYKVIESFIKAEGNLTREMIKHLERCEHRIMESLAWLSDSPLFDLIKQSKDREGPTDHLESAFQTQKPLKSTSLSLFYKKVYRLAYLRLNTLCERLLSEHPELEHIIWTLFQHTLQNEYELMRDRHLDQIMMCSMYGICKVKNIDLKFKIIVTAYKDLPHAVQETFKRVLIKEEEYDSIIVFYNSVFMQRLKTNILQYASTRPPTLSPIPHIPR
Protocol: For use in isothermal titration calorimetry studies, untagged pRbAB (372-787 with the linker from 590-635 removed) was prepared as described in Xiao et al., PNAS USA, 100:2363-2368 (2003).
This example illustrates the ability of the thiadiazolin-3,5-dione compounds to bind directly to a truncated pRb protein construct containing the A and B domains of the pRb pocket (pRbAB) using isothermal titration calorimetry (ITC).
Binding of compounds 1-9 to pRbAB were measured by ITC using a MicroCal™ VP-ITC isothermal titration calorimeter (MicroCal, Inc). Proteins were extensively dialyzed against a buffer containing Hepes (20 mM), pH=7.5, NaCl (150 mM) and Tris carboxy ethyl phosphine (0.1 mM) prior to analysis. Eight to twelve μL injections of 750-1500 μM compound were titrated into a pRb solution (50-150 μM) pre-equilibrated to 22° C. After subtraction of dilution heats, calorimetric data were analyzed with the MicroCal™ Origin® V5.0 (MicroCal Software, Northampton, Mass.).

[7] = biological target: T6, GST-pRbABC/6×His-HPV16-E7CR2-3 complex (Homo sapiens, UniProt P06400); experiment: ELISA: disruption of pRb/HPV16-E7 complex; type: binding; settings: disruption of pRb/viral oncoprotein complex; 500 nM 16E7
T6 construct: made in house; host or cells: pRb: Sf9; E7: E. coli BL21(DE3)
T6 sequence (P06400 376-928): T1 sequence (P06400 376-928)
Protocol: An ELISA assay was utilized with modifications such that the amount of 6×His-HPV16-E7CR2-3 remaining bound to the partner protein on the plate could be measured. The compounds identified in Example 2 were purchased (Lankenau Institute for Medical Research) as powders. Their purity was verified by LC/MS and their structures by NMR. IC50 values were then measured for (i) the compounds identified in Example 1, (ii) the compounds prepared according to Examples 3-5, (iii) 2-phenyl-4-methyl-1,2,4-thiadiazolidin-3,5-dione (available from Molport, Latvia), and (iv) 4-benzyl-2-methyl-1,2,4-thiadiazolidin-3,5-dione (TDZD-8; Catalog No. T8325-5MG, Sigma) using the same ELISA-based assay as described for the high-throughput screen, except that the assay was performed manually in 96-well format and so all volumes used were double those from 384-well format.
All compounds were solubilized in DMSO (50 mM) and diluted for use in the ELISA-based assay at a final DMSO concentration of less than 5%. Ten-fold dilutions of thiadiazolin-3,5-dione compound (starting at 100 μM) were added to a mixture containing GST-pRbABC and 6×His-HPV16E7CR2-3. The amount of E7 remaining was determined by adding a primary anti-His antibody. The concentrations of the compounds in the IC50 experiment spanned the range of enzyme activity from no inhibition to complete inhibition. Three independent IC50 measurements were performed for each compound and the average and standard deviation values are reported. All data was imported into the GraphPad® Software (Prism) for IC50 determination. To calculate the IC50 values, the dose-response curves were fit to one-site (Hill slope=1) sigmoidal-dose-response curves.

[8] = 10 μM compound (staurosporine 2 μM)
[9] = SiHa, 10 μM compound (staurosporine 2 μM)

Row | Compound | morphology of SiHa cells [1] | effect on SiHa cells [1, 8] | % Apoptotic [1, 9] [%] | % G0/G1 [1, 9] [%] | % G2/M [1, 9] [%] | % S [1, 9] [%] | IC50 [2] [µM] | IC50 [3] [µM] | IC50 [4] [µM] | IC50 [5] [µM] | Kd [6] [µM] | IC50 [7] [µM] | reversibility of binding to pRb ([6]; ITC repeated after overnight dialysis of pRb/compound complex)
1 | Cn1c(=O)on(-c2ccc(Cl)c(Cl)c2)c1=O [2-(3,4-dimethyl-phenyl)-4-methyl-1,2,4-oxadiazolin-3,5-dione, reference compound] | maintained the elongated shape | no effect | 0.9 | 71.8 | 16.3 | 11.3 | – | – | – | – | – | – | –
2 | Cc1ccccc1-n1sc(=O)n(C(C)C)c1=O [Compound 1] | – | – | – | – | – | – | 10.6 ± 1.3 | 2.8 ± 2.2 | 7.9 ± 2.1 | 5 ± 1.8 | 0.165 ± 0.052 | – | –
3 | COn1c(=O)sn(-c2ccccc2C)c1=O [Compound 2] | – | – | – | – | – | – | 3.5 ± 1.6 | 0.64 | 3 ± 2.3 | 2.6 ± 1.3 | 0.104 ± 0.025 | 0.57 ± 1.2 | –
4 | Cc1ccccc1-n1sc(=O)n(C)c1=O [Compound 3] | – | most drastically affected | 6.5 | – | – | 15.4 | 4.5 ± 1.7 | 0.24 | 3.4 ± 2 | 1 ± 2.1 | 0.106 ± 0.034 | 0.5 ± 1.5 | reversible
